{
  "source": "patent US11951214B2",
  "about": "“Capsule formulations” (CHEMOCENTRYX, INC., priority 2018, dated 2024)",
  "experiment": "Food effect study (high fat, high calorie meal) in healthy volunteers",
  "type": "in vivo, human",
  "conditions": "for Tmax / AUC(0-inf) / AUC(0-t) / Cmax: human, plasma, 30 mg; for AUC(0-inf): read-out: AUC0-inf, Geometric LSM; for AUC(0-t): read-out: AUC0-t, Geometric LSM; for Cmax: read-out: Cmax, Geometric LSM",
  "description": "An open-label study in 16 healthy volunteers to evaluate the pharmacokinetic effect of a high fat (˜50% of total caloric content of the meal), high calorie meal on the solid solution capsule of Compound 1 in a 50:50 mixture of macrogol-40-glycerol hydroxystearate:PEG-4000. Subjects received a single oral dose of 30 mg Compound 1, given in the fed or fasted state. Blood samples were collected for measurement of Compound 1 plasma concentrations.",
  "key": {"[1]": {"conditions": "healthy volunteers, 30 mg single oral dose, 100 × (test/reference)"}, "[2]": {"conditions": "high fat, high calorie meal with 30 mg Compound 1"}, "[3]": {"conditions": "po, healthy volunteers, 30 mg single oral dose, 50:50 solid solution capsule, Fasted"}, "[4]": {"conditions": "po, healthy volunteers, 30 mg single oral dose, 50:50 solid solution capsule, Fed (high fat, high calorie meal)"}},
  "note": "Where two headings read alike, the source gives them in different places.",
  "data": [
    {"compound": "Cc1ccc(NC(=O)[C@H]2CCCN(C(=O)c3c(C)cccc3F)[C@H]2c2ccc(NC3CCCC3)cc2)cc1C(F)(F)F", "note": "[Compound 1, (2R,3 S)-2-(4-(cyclopentylamino)phenyl)-1-(2-fluoro-6-methylbenzoyl)-N-(4-methyl-3-(trifluoromethyl)phenyl)piperidine-3-carboxamide]", "values": [
      {"measurement": "AUC0-inf, GMR (fed/fasted)", "setting": "[1]", "value": 171.60, "unit": "%"},
      {"measurement": "AUC0-t, GMR (fed/fasted)", "setting": "[1]", "value": 170.68, "unit": "%"},
      {"measurement": "Cmax, GMR (fed/fasted)", "setting": "[1]", "value": 107.98, "unit": "%"},
      {"measurement": "Tmax, GMR (fed/fasted)", "setting": "[1]", "value": 235.29, "unit": "%"},
      {"measurement": "increase of Cmax, fed compared to fasted", "setting": "[2]", "value": 8, "unit": "%"},
      {"measurement": "increase of plasma Compound 1 AUC, fed compared to fasted", "setting": "[2]", "value": "approximately 70%"},
      {"measurement": "Tmax", "setting": "oral, high fat, high calorie meal with 30 mg Compound 1, read-out: delay of Tmax in the fed population", "value": "~3", "unit": "h"},
      {"measurement": "AUC(0-inf)", "setting": "[3]", "value": 959, "unit": "ng·h/mL"},
      {"measurement": "AUC(0-t)", "setting": "[3]", "value": 826, "unit": "ng·h/mL"},
      {"measurement": "Cmax", "setting": "[3]", "value": 119, "unit": "ng/mL"},
      {"measurement": "Tmax", "setting": "po, healthy volunteers, 30 mg single oral dose, 50:50 solid solution capsule, Fasted, read-out: Tmax, untransformed LSM", "value": 2.29, "unit": "h"},
      {"measurement": "AUC(0-inf)", "setting": "[4]", "value": 1650, "unit": "ng·h/mL"},
      {"measurement": "AUC(0-t)", "setting": "[4]", "value": 1410, "unit": "ng·h/mL"},
      {"measurement": "Cmax", "setting": "[4]", "value": 128, "unit": "ng/mL"},
      {"measurement": "Tmax", "setting": "po, healthy volunteers, 30 mg single oral dose, 50:50 solid solution capsule, Fed (high fat, high calorie meal), read-out: Tmax, untransformed LSM", "value": 5.38, "unit": "h"}
    ]}
  ]
}
